According to ChEMBL document CHEMBL3763016, “Design, synthesis and biological evaluation of 3'-benzylated analogs of 3'-epi-neoponkoranol as potent α-glucosidase inhibitors” (Eur J Med Chem, 2016):

Legend:
[1] = biological target: T1, Sucrase-isomaltase, intestinal (Rattus norvegicus, UniProt P23739); assay: Inhibition of rat intestinal sucrase using sucrose as substrate incubated for 30 mins by glucose-oxidase method
[2] = Inhibition of rat intestinal maltase using maltose as substrate incubated for 30 mins by glucose-oxidase method
[3] = Cytotoxicity against human HELF cells by MTT assay; assay type: cell-based
[4] = Competitive inhibition of rat intestinal maltase using maltose as substrate incubated for 30 mins by Lineweaver-Burk plot analysis
[5] = biological target: T1, Sucrase-isomaltase, intestinal; assay: Competitive inhibition of rat intestinal sucrase using sucrose as substrate incubated for 30 mins by Lineweaver-Burk plot analysis
[6] = biological target: Sucrase-isomaltase, intestinal (Rattus norvegicus) (UniProt P23739); assay: Potency index, ratio of acarbose IC50 to compound IC50 for rat intestinal sucrase
Sucrase-isomaltase, intestinal (Rattus norvegicus), sequence (P23739 1-1013 limits assumed): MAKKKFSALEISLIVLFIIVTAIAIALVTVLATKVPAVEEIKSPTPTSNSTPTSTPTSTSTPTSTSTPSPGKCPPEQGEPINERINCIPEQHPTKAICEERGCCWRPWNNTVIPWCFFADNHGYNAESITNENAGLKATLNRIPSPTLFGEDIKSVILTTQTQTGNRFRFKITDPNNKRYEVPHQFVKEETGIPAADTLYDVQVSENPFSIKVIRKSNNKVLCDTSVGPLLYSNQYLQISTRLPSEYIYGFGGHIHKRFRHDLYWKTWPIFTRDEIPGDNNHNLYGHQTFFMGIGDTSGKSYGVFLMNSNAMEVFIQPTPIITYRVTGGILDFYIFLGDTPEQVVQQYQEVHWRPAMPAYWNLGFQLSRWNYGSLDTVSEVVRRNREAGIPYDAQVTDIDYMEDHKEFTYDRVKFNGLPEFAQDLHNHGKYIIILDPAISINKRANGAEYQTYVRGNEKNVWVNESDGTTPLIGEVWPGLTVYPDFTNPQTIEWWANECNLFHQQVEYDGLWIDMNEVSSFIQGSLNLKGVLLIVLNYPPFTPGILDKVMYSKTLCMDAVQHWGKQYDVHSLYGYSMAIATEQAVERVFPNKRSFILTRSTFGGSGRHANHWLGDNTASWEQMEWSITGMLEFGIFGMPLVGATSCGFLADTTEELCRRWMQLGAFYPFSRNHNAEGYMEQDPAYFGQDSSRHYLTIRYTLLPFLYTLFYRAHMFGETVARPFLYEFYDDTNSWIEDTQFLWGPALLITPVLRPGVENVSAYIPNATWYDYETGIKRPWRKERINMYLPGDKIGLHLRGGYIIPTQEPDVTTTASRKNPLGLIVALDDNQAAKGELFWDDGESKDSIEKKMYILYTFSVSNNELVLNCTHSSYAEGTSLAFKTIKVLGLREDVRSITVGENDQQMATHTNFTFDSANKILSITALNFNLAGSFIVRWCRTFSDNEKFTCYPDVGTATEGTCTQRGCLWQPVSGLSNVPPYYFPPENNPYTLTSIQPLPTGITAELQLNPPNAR
Sucrase-isomaltase, intestinal (Rattus norvegicus), sequence (P23739 1014-1841 limits assumed): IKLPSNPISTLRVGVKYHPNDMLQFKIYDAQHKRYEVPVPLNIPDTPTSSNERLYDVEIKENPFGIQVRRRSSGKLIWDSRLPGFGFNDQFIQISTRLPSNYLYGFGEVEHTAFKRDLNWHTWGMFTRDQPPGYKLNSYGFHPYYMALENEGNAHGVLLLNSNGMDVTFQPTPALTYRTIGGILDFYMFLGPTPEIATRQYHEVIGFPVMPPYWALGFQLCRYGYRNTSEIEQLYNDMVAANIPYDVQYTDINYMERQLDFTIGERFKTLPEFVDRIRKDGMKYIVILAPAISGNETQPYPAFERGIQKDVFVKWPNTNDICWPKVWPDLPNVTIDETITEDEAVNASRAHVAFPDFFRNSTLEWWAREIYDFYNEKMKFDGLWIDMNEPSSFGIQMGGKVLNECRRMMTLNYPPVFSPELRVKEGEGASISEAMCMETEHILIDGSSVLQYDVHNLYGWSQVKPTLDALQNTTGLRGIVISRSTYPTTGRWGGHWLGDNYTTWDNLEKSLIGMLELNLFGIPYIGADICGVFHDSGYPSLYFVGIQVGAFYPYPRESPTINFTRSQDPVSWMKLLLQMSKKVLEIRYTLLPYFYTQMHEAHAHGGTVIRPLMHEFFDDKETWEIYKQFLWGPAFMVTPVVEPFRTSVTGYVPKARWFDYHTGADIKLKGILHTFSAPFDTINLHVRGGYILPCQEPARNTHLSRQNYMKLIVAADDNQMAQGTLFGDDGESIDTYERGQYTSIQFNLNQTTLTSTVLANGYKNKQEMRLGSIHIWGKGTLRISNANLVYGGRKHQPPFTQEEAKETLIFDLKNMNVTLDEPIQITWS

T1 sequence (P23739 1-1013 limits assumed): as the sequence (P23739 1-1013 limits assumed) above
T1 sequence (P23739 1014-1841 limits assumed): as the sequence (P23739 1014-1841 limits assumed) above

Row | SMILES | IC50 [1] [nM] | IC50 [2] [nM] | Ki [4] [µg/mL] | Ki [5] [nM] | Ratio IC50 [6] | IC50 [3] [nM]
1 | OCC(CO)N[C@H]1C[C@](O)(CO)[C@@H](O)[C@H](O)[C@H]1O [VOGLIBOSE] | 300 | – | – | – | – | –
2 | OC[C@@H]1[C@@H](O)[C@H](O)C[S+]1C[C@@H](O)[C@H](OCc1ccccc1)[C@H](O)[C@@H](O)CO (some centres undefined) | 1900 | 5300 | – | – | – | –
3 | CCO[C@H]([C@H](O)[C@@H](O)CO)[C@H](O)C[S+]1C[C@@H](O)[C@H](O)[C@H]1CO (some centres undefined) | 270 | 9500 | – | – | – | –
4 | O=[N+]([O-])c1ccccc1CO[C@H]([C@H](O)[C@@H](O)CO)[C@H](O)C[S+]1C[C@@H](O)[C@H](O)[C@H]1CO.[Cl-] (some centres undefined) | 320 | 3500 | 0.6 | 185 | – | > 500000
5 | OC[C@@H]1[C@@H](O)[C@H](O)C[S+]1C[C@@H](O)[C@H](OCc1ccccc1Cl)[C@H](O)[C@@H](O)CO.[Cl-] (some centres undefined) | 700 | 8200 | 0.45 | 210 | – | > 500000
6 | OC[C@@H]1[C@@H](O)[C@H](O)C[S+]1C[C@@H](O)[C@H](OCc1ccccc1C(F)(F)F)[C@H](O)[C@@H](O)CO.[Cl-] (some centres undefined) | 200 | 2500 | 0.28 | 216 | 10 | > 500000

More lines, main results first:

Row | IC50 [1] [nM] | IC50 [2] [nM] | Ki [4] [µg/mL] | Ki [5] [nM] | Ratio IC50 [6] | SMILES | IC50 [3] [nM]
7 | 210 | 6700 | – | – | – | O=[N+]([O-])c1cccc(CO[C@H]([C@H](O)[C@@H](O)CO)[C@H](O)C[S+]2C[C@@H](O)[C@H](O)[C@H]2CO)c1 (some centres undefined) | –
8 | 5600 | 18300 | – | – | – | OC[C@@H]1[C@@H](O)[C@H](O)C[S+]1C[C@@H](O)[C@H](OCc1ccc(Cl)cc1)[C@H](O)[C@@H](O)CO (some centres undefined) | –
9 | 4200 | 32400 | – | – | – | O=[N+]([O-])c1ccc(CO[C@H]([C@H](O)[C@@H](O)CO)[C@H](O)C[S+]2C[C@@H](O)[C@H](O)[C@H]2CO)cc1 (some centres undefined) | –
10 | 300 | 2000 | – | – | – | OC[C@@H]1[C@@H](O)[C@H](O)C[S+]1C[C@@H](O)[C@H](O)[C@H](O)[C@@H](O)CO (some centres undefined) | –
11 | 4600 | 10000 | 0.74 | 786 | – | OC[C@@H]1[C@@H](O)[C@H](O)C[S+]1C[C@@H](O)[C@H](OCc1ccc(C(F)(F)F)cc1)[C@H](O)[C@@H](O)CO.[Cl-] (some centres undefined) | –
12 | 450 | 9600 | 0.66 | 354 | – | OC[C@@H]1[C@@H](O)[C@H](O)C[S+]1C[C@@H](O)[C@H](OCc1cccc(C(F)(F)F)c1)[C@H](O)[C@@H](O)CO.[Cl-] (some centres undefined) | –
13 | 510 | 5200 | – | – | – | OC[C@@H]1[C@@H](O)[C@H](O)C[S+]1C[C@@H](O)[C@H](OCc1cccc(Cl)c1)[C@H](O)[C@@H](O)CO (some centres undefined) | –
